Common to all, as to type: cell-based, human
The subject of experiment [1] is CD4+ clone C111 T cells; 1847 CD40L B cells (HLA-DRβ1*1301). The experiment can be described thus: Peptide-pulsed 1847 CD40L B cells, IFN-γ release from clone C111 by ELISA. The conditions noted are these: 18 hrs. As for the experimental part:
(§1) Peptides of 20 or 21 amino acids in length that overlapped by 15 amino acids that were encoded by the long open reading frame of the original cDNA clone that was isolated were synthesised by solid-phase method using a peptide synthesiser (AMS 422; Gilson Co., Inc. Middleton, Wis.). The purity of the peptides was verified by mass spectrometry (Tuft's Core Facility, Boston, Mass.). […] After three hours, 1-5×10^4 T cells were added to the wells in 150 μl/well of medium and incubated for 18 hours at 37° C. and 5% CO2, followed by measurement of INF-γ release by ELISA.
(§2) Peptides that were 20 or 21 amino acids in length and that overlapped by either 14 or 16 amino acids, were than synthesised and tested for their ability to sensitise target cells for recognition by C111 T cells. Since autologous normal B cells could not be efficiently expanded, allogeneic normal B cells expressing either DRβ1*0402 or DRβ1*1301 were used to carry out these assays.
(§3) The 1681 and 1847 CD40L stimulated normal B cell lines shared expression of HLA-DRβ1*0402 and HLA-DRβ1*1301 molecules, respectively, with the autologous tumour cell line. These cells were incubated with the panel of peptides and then tested for their ability to stimulate cytokine release from C111 T cells.

Experiment [2] concerns CD4+ clone C111 T cells; 1681 CD40L B cells (HLA-DRβ1*0402). The experiment can be described thus: Peptide-pulsed 1681 CD40L B cells, IFN-γ release from clone C111 by ELISA. As to conditions: 18 hrs. As for the experimental part:
as §1, §2, §3
In general terms: An ELISA detects its analyte on a solid surface through an enzyme-linked reagent.

The subject of another experiment is C111 T cells. Put plainly: Peptide pulsing of target cells expressing HLA-DRβ1*0402 or 1301, cytokine release from C111 T cells. As to conditions: 1681 and 1847 CD40L B cells pulsed with peptide. As for the experimental part: Peptides of 20 or 21 amino acids in length that overlapped by 15 amino acids that were encoded by the long open reading frame of the original cDNA clone that was isolated were synthesised by solid-phase method using a peptide synthesiser (AMS 422; Gilson Co., Inc. Middleton, Wis.). The purity of the peptides was verified by mass spectrometry (Tuft's Core Facility, Boston, Mass.). Allogeneic B cells (1×10^5 cells/well) that expressed either the DRβ1*0402 or the DRβ1*1301 molecules were incubated with 50 μg/ml in 100 μl/well of ISCOVE'S medium plus 10% HS in flat bottom-96-well plates. After three hours, 1-5×10^4 T cells were added to the wells in 150 μl/well of medium and incubated for 18 hours at 37° C. and 5% CO2, followed by measurement of INF-γ release by ELISA.
as §2
The 1681 and 1847 CD40L stimulated normal B cell lines shared expression of HLA-DRβ1*0402 and HLA-DRβ1*1301 molecules, respectively, with the autologous tumour cell line. […]

Where [3] appears, read: 1847 CD40LB pulsed with peptide 12.5 μg/ml.
The mark [4] stands for this setting: 1847 CD40LB pulsed with peptide 25 μg/ml.
Where [5] appears, read: 1847 CD40LB pulsed with peptide 26.25 μg/ml.
The mark [6] stands for this setting: 1847 CD40LB pulsed with peptide 50 μg/ml.
[7] abbreviates: 1847 CD40LB pulsed with peptide 100 μg/ml.
Setting [8] is: 1681 CD40LB pulsed with peptide 12.5 μg/ml.
Setting [9] is: 1681 CD40LB pulsed with peptide 25 μg/ml.
Setting [10] is: 1681 CD40LB pulsed with peptide 26.25 μg/ml.
Where [11] appears, read: 1681 CD40LB pulsed with peptide 50 μg/ml.
[12] abbreviates: 1681 CD40LB pulsed with peptide 100 μg/ml.

Where only a bound is given, the exact number is not on record here.

On to “DDTLTLQAAGLVPKAALLLRA [COA-1-derived overlapping peptide]”, for which the IFN-γ release from clone C111 in experiment [1] (setting [3]) is below 7.8 pg/mL; in experiment [1] (setting [4]), below 7.8 pg/mL; in experiment [1] (setting [5]), below 7.8 pg/mL; in experiment [1] (setting [6]), 33 pg/mL; in experiment [1] (setting [7]), 22 pg/mL; in experiment [2] (setting [8]), below 7.8 pg/mL. Further, the IFN-γ release from clone C111 in experiment [2] (setting [9]) is below 7.8 pg/mL; in experiment [2] (setting [10]) it was below 7.8 pg/mL; in experiment [2] (setting [11]), 16 pg/mL; in experiment [2] (setting [12]), 11 pg/mL.
With “TLYQDDTLTLQAAGLVPKAA (listed as Homo sapiens) [COA-1-derived overlapping peptide]”, the “cytokine release from C111 T cells” value with C111 T cells was “stimulated significant cytokine release”. Further, the IFN-γ release from clone C111 in experiment [1] (setting [3]) is below 7.8 pg/mL; in experiment [1] (setting [4]) it was below 7.8 pg/mL; in experiment [1] (setting [5]), below 7.8 pg/mL; in experiment [1] (setting [6]) it was 326 pg/mL; in experiment [1] (setting [7]), 79 pg/mL; in experiment [2] (setting [8]), below 7.8 pg/mL. Also, the IFN-γ release from clone C111 in experiment [2] (setting [9]) was below 7.8 pg/mL; in experiment [2] (setting [10]) it was below 7.8 pg/mL; in experiment [2] (setting [11]), 159 pg/mL; in experiment [2] (setting [12]), 51 pg/mL.
As to “LQAAGLVPKAALLLRARRAP [COA-1-derived overlapping peptide]”, the IFN-γ release from clone C111 in experiment [1] (setting [3]) is below 7.8 pg/mL; in experiment [1] (setting [4]), below 7.8 pg/mL; in experiment [1] (setting [5]) it was below 7.8 pg/mL; in experiment [1] (setting [6]), 32 pg/mL; in experiment [1] (setting [7]), 52 pg/mL; in experiment [2] (setting [8]), below 7.8 pg/mL. The IFN-γ release from clone C111 in experiment [2] (setting [9]) is below 7.8 pg/mL; in experiment [2] (setting [10]) it was below 7.8 pg/mL; in experiment [2] (setting [11]), 12 pg/mL; in experiment [2] (setting [12]), 21 pg/mL.
“ASAFEIFSTFPPTLYQDDTL [COA-1-derived overlapping peptide]”: the IFN-γ release from clone C111 in experiment [1] (setting [3]), in experiment [1] (setting [4]), in experiment [1] (setting [5]), in experiment [1] (setting [6]) and in experiment [1] (setting [7]) was below 7.8 pg/mL throughout.
Regarding “FSTFPPTLYQDDTLTLQAAG (listed as Homo sapiens) [COA-1-derived overlapping peptide]”, the “cytokine release from C111 T cells” value with C111 T cells is “stimulated significant cytokine release”. Further, the IFN-γ release from clone C111 in experiment [1] (setting [3]) was 79 pg/mL; in experiment [1] (setting [4]), 296 pg/mL; in experiment [1] (setting [5]), below 7.8 pg/mL; in experiment [1] (setting [6]) it was 397 pg/mL; in experiment [1] (setting [7]), 226 pg/mL; in experiment [2] (setting [8]), below 7.8 pg/mL. For the same sequence, the IFN-γ release from clone C111 in experiment [2] (setting [9]) was 69 pg/mL; in experiment [2] (setting [10]), below 7.8 pg/mL; in experiment [2] (setting [11]) it was 236 pg/mL; in experiment [2] (setting [12]) it was 105 pg/mL.
